Test results published in US20240376163A1, “PEPTIDE FOR INHIBITING CALCINEURIN AND USE THEREOF” (Seoul National University R&DB Foundation, priority 2023, published 2024).

System: Jurkat T cells
Assay: mRNA sequencing of activated Jurkat T cells
Type: cell-based, human
Conditions: P+I

PEITVTPPTP [CABIN1-L-1-2]
GPR108 FPKM: 37.394 FPKM | GPR183 FPKM: 4.735 FPKM | GRAP2 FPKM: 11.197 FPKM | GRK5 FPKM: 8.975 FPKM | GZMH FPKM: 13.893 FPKM | HAPLN3 FPKM: 58.345 FPKM | HDC FPKM: 23.209 FPKM | HHIP FPKM: 6.793 FPKM | HHIP-AS1 FPKM: 29.854 FPKM | HIVEP2 FPKM: 9.184 FPKM | HSP90B1 FPKM: 910.415 FPKM | HSP90B2P FPKM: 9.619 FPKM | HSPA5 FPKM: 449.173 FPKM | ICAM1 FPKM: 12.914 FPKM | ID2 FPKM: 15.335 FPKM | IER2 FPKM: 126.884 FPKM | IER3 FPKM: 26.899 FPKM | IFFO2 FPKM: 3.163 FPKM | IFIH1 FPKM: 12.37 FPKM | IFNG FPKM: 8.858 FPKM | IGLL1 FPKM: 3.244 FPKM | IGSF9B FPKM: 8.992 FPKM | IL2RA FPKM: 10.904 FPKM | IL3 FPKM: 6.298 FPKM | IL4I1 FPKM: 7.279 FPKM | IL16 FPKM: 8.304 FPKM | IL22 FPKM: 3.136 FPKM | IL23A FPKM: 17.874 FPKM | IMPA2 FPKM: 2.882 FPKM | IRF8 FPKM: 1.914 FPKM | IRF9 FPKM: 39.375 FPKM | ISM1 FPKM: 3.737 FPKM | JAK3 FPKM: 8.871 FPKM | JUN FPKM: 3.58 FPKM | JUNB FPKM: 56.126 FPKM | KBTBD11 FPKM: 2.772 FPKM | KCNK5 FPKM: 4.904 FPKM | KCTD11 FPKM: 2.303 FPKM | KIAA0922 FPKM: 12.911 FPKM | KIF1B FPKM: 13.254 FPKM | KIF3B FPKM: 14.583 FPKM | KLF2 FPKM: 1.375 FPKM | KSR1 FPKM: 5.998 FPKM | LAIR2 FPKM: 3.695 FPKM | LAMP3 FPKM: 9.828 FPKM | LAX1 FPKM: 7.578 FPKM | LDLRAP1 FPKM: 0.878 FPKM | LIME1 FPKM: 11.879 FPKM | LINC00152 FPKM: 31.801 FPKM | LINC00426 FPKM: 0.675 FPKM | LINC00528 FPKM: 5.927 FPKM | LINC00539 FPKM: 2.351 FPKM | LINC00977 FPKM: 0.266 FPKM | LOC729603 FPKM: 3.329 FPKM | LRRC8B FPKM: 4.298 FPKM | LRRC45 FPKM: 4.264 FPKM | LYPD3 FPKM: 2.662 FPKM | MAP2K3 FPKM: 43.237 FPKM | MAP2K6 FPKM: 0.955 FPKM | MBOAT2 FPKM: 3.202 FPKM | MCM4 FPKM: 27.291 FPKM | MCM5 FPKM: 33.895 FPKM | METRNL FPKM: 7.881 FPKM | MIR221 FPKM: 10.092 FPKM | MIR4435-1HG FPKM: 16.303 FPKM | MIR6891 FPKM: 31.815 FPKM | MMP10 FPKM: 22.372 FPKM | MRPL39 FPKM: 188.834 FPKM | MYO1D FPKM: 5.995 FPKM | MYO1G FPKM: 65.452 FPKM | MYO7B FPKM: 12.661 FPKM | NAMPT FPKM: 54.272 FPKM | NDFIP1 FPKM: 24.432 FPKM | NDFIP2 FPKM: 12.598 FPKM | NDST3 FPKM: 5.621 FPKM | NEIL3 FPKM: 8.336 FPKM | NEXN FPKM: 5.587 FPKM | NFE2L3 FPKM: 28.495 FPKM | NFKBIA FPKM: 70.837 FPKM | NFKBID FPKM: 8.294 FPKM | NFKBIE FPKM: 11.793 FPKM | NINJ1 FPKM: 54.452 FPKM | NKD2 FPKM: 3.105 FPKM | NKX3-1 FPKM: 8.412 FPKM | NLRC5 FPKM: 37.7 FPKM | NPY FPKM: 4.799 FPKM | NR4A1 FPKM: 34.85 FPKM | NR4A2 FPKM: 0.356 FPKM | NRROS FPKM: 26.059 FPKM | NT5M FPKM: 1.643 FPKM | NXN FPKM: 1.571 FPKM | OAS3 FPKM: 18.24 FPKM | OSBPL3 FPKM: 23.298 FPKM | PARP9 FPKM: 84.386 FPKM | PARP14 FPKM: 72.911 FPKM | PCBP3 FPKM: 4.642 FPKM | PDE3B FPKM: 5.194 FPKM | PEAK1 FPKM: 9.633 FPKM | PELI1 FPKM: 8.465 FPKM | PHEX FPKM: 0.786 FPKM
